{"source": "patent US20200354402A1", "about": "“PEPTIDE COMPOSITIONS AND RELATED METHODS” (Allegro Pharmaceuticals, LLC, priority 2017, published 2020)", "origin": "cited, not measured here", "system": "ischemia-induced retinal neovascularization", "conditions": "intravitreal injection; stated as known"}
{"substance": "R—G—E.TFA [Test Compound 21]", "values": [{"measurement": "known activity of the control peptides", "result": "known to be inactive"}]}
